Measured values published in patent publication US20060069132A1, “Azolecarboxamide herbicides” (priority 2004, published 2006).

Experiments:
[1] = tested on: small flower umbrella sedge; experiment: Test B flooded paddy test; format: in vivo, Cyperus difformis; conditions: 1000 g ai/ha, visual rating, scale 0 to 100 (0 no effect, 100 complete control), 13 to 15 days
Method in brief: (§1)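 Visual ratings, 0 (no effect) to 100 (complete control), made versus controls after 13–15 d greenhouse. Paddy plants treated at 2-leaf stage; postemergence plants at 1- to 4-leaf stage, 2–18 cm tall.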

pigweed = experiment: Test B pre-/postemergence herbicide test; format: in vivo, Amaranthus retroflexus; conditions: for Pigweed plant response rating: postemergence, visual rating, scale 0 (no effect) to 100 (complete control)
Method in brief: (§2)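 Test chemicals in a non-phytotoxic solvent mixture with surfactant were applied preemergence to seeded species and postemergence to plants 2-18 cm tall (1- to 4-leaf stage); rice and barnyardgrass were also tested in a flooded paddy at the 2-leaf stage. Visual rating versus controls after 13-15 days in greenhouse, scale 0 (no effect) to 100 (complete control).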

velvetleaf = experiment: Test B pre-/postemergence herbicide test; format: in vivo, Abutilon theophrasti; conditions: for Velvetleaf plant response rating: postemergence, visual rating, scale 0 (no effect) to 100 (complete control)
Method in brief: as §2

cocklebur = experiment: Test B pre-/postemergence herbicide test; format: in vivo, Xanthium strumarium; conditions: for Cocklebur plant response rating: postemergence, visual rating, scale 0 (no effect) to 100 (complete control)
Method in brief: (§3)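 Visual rating, 0 (no effect) to 100 (complete control), versus untreated controls after 13–15 d in greenhouse. Pre- and postemergence applications (postemergence plants 2–18 cm, 1–4 leaves); flooded paddy arm at 2-leaf stage. Compounds in non-phytotoxic solvent plus surfactant.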

large crabgrass = experiment: Test B pre-/postemergence herbicide test; format: in vivo, Digitaria sanguinalis; conditions: for Crabgrass, Large plant response rating: postemergence, visual rating, scale 0 (no effect) to 100 (complete control)
Method in brief: as §2

corn = experiment: Test B pre-/postemergence herbicide test; format: in vivo, Zea mays; conditions: for Corn plant response rating: postemergence, visual rating, scale 0 (no effect) to 100 (complete control)
Method in brief: as §2

Surinam grass = experiment: Test B pre-/postemergence herbicide test; format: in vivo, Urochloa decumbens; conditions: for Surinam Grass plant response rating: postemergence, visual rating, scale 0 (no effect) to 100 (complete control)
Method in brief: as §2

wild oat = experiment: Test B postemergence herbicide test; format: in vivo, Avena fatua; conditions: postemergence, visual rating, scale 0 (no effect) to 100 (complete control)
Method in brief: (§4)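 Formulated test chemicals went onto postemergence plants measuring 2 to 18 cm, at one to four leaves. For the paddy assay, species had reached two leaves. Scoring took place 13–15 days later by eye, relative to untreated plants, using 0 for no effect up to 100 for full control.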

rice = experiment: Test B flooded paddy test; format: in vivo, Oryza sativa; conditions: 1000 g ai/ha, visual rating, scale 0 to 100 (0 no effect, 100 complete control), 13 to 15 days
Method in brief: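 Paddy species grown to the 2-leaf stage under flooding; blackgrass sprayed postemergence at 2–18 cm (1- to 4-leaf stage). Plants kept in a greenhouse for 13 to 15 days, then visually rated against controls on 0 (no effect) to 100 (complete control).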

barnyardgrass = experiment: Test B pre-/postemergence herbicide test; format: in vivo, Echinochloa crus-galli; conditions: for Barnyardgrass plant response rating: postemergence, visual rating, scale 0 (no effect) to 100 (complete control)
Method in brief: as §3

wheat = experiment: Test B postemergence herbicide test; format: in vivo, Triticum aestivum; parameters: key to Wheat plant response rating: 0 = no effect, 100 = complete control; conditions: postemergence, visual rating, scale 0 (no effect) to 100 (complete control)
Method in brief: as §4

morningglory = experiment: Test B pre-/postemergence herbicide test; format: in vivo, Ipomoea coccinea; conditions: for Morningglory plant response rating: postemergence, visual rating, scale 0 (no effect) to 100 (complete control)
Method in brief: as §3

blackgrass = experiment: Test B postemergence herbicide test; format: in vivo, Alopecurus myosuroides; conditions: postemergence, visual rating, scale 0 (no effect) to 100 (complete control)
Method in brief: as §1

ducksalad = experiment: Test B flooded paddy test; format: in vivo, Heteranthera limosa; conditions: 1000 g ai/ha, visual rating, scale 0 to 100 (0 no effect, 100 complete control), 13 to 15 days
Method in brief: as §1

giant foxtail = experiment: Test B pre-/postemergence herbicide test; format: in vivo, Setaria faberi; conditions: for Foxtail, Giant plant response rating: postemergence, visual rating, scale 0 (no effect) to 100 (complete control)
Method in brief: as §2

[2] = 500 g ai/ha, visual rating 0-100, 0 no effect, 100 complete control, preemergence
[3] = preemergence, 125 g ai/ha, 0 to 100 scale, 0 is no effect, 100 is complete control
[4] = 125 g ai/ha, 0 = no effect, 100 = complete control, preemergence

SMILES: CCCCOc1cccc(NC(=O)c2cc(C(C)(C)C)nn2CC)c1 [Compound 137]
- Sedge, Umbrella plant response rating [1]: 90
- Plant response rating, Pigweed (pigweed; [2]): 100
- Pigweed plant response rating (pigweed; 125 g ai/ha): 90
- Pigweed plant response rating (pigweed; 500 g ai/ha): 100
- Plant response rating, Pigweed (pigweed; [3]): 80
- Plant response rating, Velvetleaf (velvetleaf; [2]): 60
- Velvetleaf plant response rating (velvetleaf; 125 g ai/ha): 40
- Velvetleaf plant response rating (velvetleaf; 500 g ai/ha): 60
- Plant response rating, Velvetleaf (velvetleaf; [3]): 10
- Plant response rating, Cocklebur (cocklebur; [2]): 0
- Cocklebur plant response rating (cocklebur; 125 g ai/ha): 50
- Cocklebur plant response rating (cocklebur; 500 g ai/ha): 100
- Plant response rating, Cocklebur (cocklebur; [3]): 0
- Plant response rating, Crabgrass, Large (large crabgrass; [2]): 100
- Crabgrass, Large plant response rating (large crabgrass; 125 g ai/ha): 10
- Crabgrass, Large plant response rating (large crabgrass; 500 g ai/ha): 30
- Plant response rating, Crabgrass, Large (large crabgrass; [3]): 80
- Plant response rating, Corn (corn; [2]): 10
- Corn plant response rating (corn; 125 g ai/ha): 10
- Corn plant response rating (corn; 500 g ai/ha): 20
- Plant response rating, Corn (corn; [3]): 10
- Plant response rating, Surinam Grass (Surinam grass; [2]): 80
- Surinam Grass plant response rating (Surinam grass; 125 g ai/ha): 20
- Surinam Grass plant response rating (Surinam grass; 500 g ai/ha): 70
- Plant response rating, Surinam Grass (Surinam grass; [3]): 20
- Oat, Wild plant response rating (wild oat; 125 g ai/ha): 30
- Oat, Wild plant response rating (wild oat; 500 g ai/ha): 70
- Rice plant response rating (rice): 20
- Plant response rating, Barnyardgrass (barnyardgrass; [2]): 70
- Barnyardgrass plant response rating (barnyardgrass; 125 g ai/ha): 30
- Barnyardgrass plant response rating (barnyardgrass; 500 g ai/ha): 40
- Plant response rating, Barnyardgrass (barnyardgrass; [3]): 10
- Wheat plant response rating (wheat; 125 g ai/ha): 10
- Wheat plant response rating (wheat; 500 g ai/ha): 20
- Plant response rating, Morningglory (morningglory; [2]): 20
- Morningglory plant response rating (morningglory; 125 g ai/ha): 0
- Morningglory plant response rating (morningglory; 500 g ai/ha): 60
- Plant response rating, Morningglory (morningglory; [3]): 0
- Blackgrass plant response rating (blackgrass; 125 g ai/ha): 10
- Blackgrass plant response rating (blackgrass; 500 g ai/ha): 20
- Ducksalad plant response rating (ducksalad): 30
- Plant response rating, Foxtail, Giant (giant foxtail; [2]): 80
- Foxtail, Giant plant response rating (giant foxtail; 125 g ai/ha): 10
- Foxtail, Giant plant response rating (giant foxtail; 500 g ai/ha): 20
- Plant response rating, Foxtail, Giant (giant foxtail; [3]): 40

SMILES: CCNC(=O)c1ccc(F)c(NC(=O)c2cn(C(C)(C)C)nc2CC)c1 [Compound 193]
- Sedge, Umbrella plant response rating [1]: 80
- Pigweed plant response rating (0 to 100 scale) (pigweed; [4]): 100
- Plant response rating, Pigweed (pigweed; [2]): 100
- Pigweed plant response rating (pigweed; 125 g ai/ha): 20
- Pigweed plant response rating (pigweed; 500 g ai/ha): 60
- Velvetleaf plant response rating (0 to 100 scale) (velvetleaf; [4]): 70
- Plant response rating, Velvetleaf (velvetleaf; [2]): 100
- Velvetleaf plant response rating (velvetleaf; 125 g ai/ha): 50
- Velvetleaf plant response rating (velvetleaf; 500 g ai/ha): 70
- Cocklebur plant response rating (0 to 100 scale) (cocklebur; [4]): 10
- Plant response rating, Cocklebur (cocklebur; [2]): 70
- Cocklebur plant response rating (cocklebur; 125 g ai/ha): 20
- Cocklebur plant response rating (cocklebur; 500 g ai/ha): 70
- Crabgrass, Large plant response rating (0 to 100 scale) (large crabgrass; [4]): 100
- Plant response rating, Crabgrass, Large (large crabgrass; [2]): 100
- Crabgrass, Large plant response rating (large crabgrass; 125 g ai/ha): 10
- Crabgrass, Large plant response rating (large crabgrass; 500 g ai/ha): 10
- Corn plant response rating (0 to 100 scale) (corn; [4]): 70
- Plant response rating, Corn (corn; [2]): 100
- Corn plant response rating (corn; 125 g ai/ha): 10
- Corn plant response rating (corn; 500 g ai/ha): 20
- Surinam Grass plant response rating (0 to 100 scale) (Surinam grass; [4]): 80
- Plant response rating, Surinam Grass (Surinam grass; [2]): 100
- Surinam Grass plant response rating (Surinam grass; 125 g ai/ha): 10
- Surinam Grass plant response rating (Surinam grass; 500 g ai/ha): 10
- Oat, Wild plant response rating (wild oat; 125 g ai/ha): 0
- Oat, Wild plant response rating (wild oat; 500 g ai/ha): 0
- Rice plant response rating (rice): 80
- Barnyardgrass plant response rating (0 to 100 scale) (barnyardgrass; [4]): 90
- Plant response rating, Barnyardgrass (barnyardgrass; [2]): 100
- Barnyardgrass plant response rating (barnyardgrass; 125 g ai/ha): 0
- Barnyardgrass plant response rating (barnyardgrass; 500 g ai/ha): 10
- Wheat plant response rating (wheat; 125 g ai/ha): 10
- Wheat plant response rating (wheat; 500 g ai/ha): 10
- Morningglory plant response rating (0 to 100 scale) (morningglory; [4]): 40
- Plant response rating, Morningglory (morningglory; [2]): 100
- Morningglory plant response rating (morningglory; 125 g ai/ha): 30
- Morningglory plant response rating (morningglory; 500 g ai/ha): 70
- Blackgrass plant response rating (blackgrass; 125 g ai/ha): 0
- Blackgrass plant response rating (blackgrass; 500 g ai/ha): 20
- Ducksalad plant response rating (ducksalad): 90
- Foxtail, Giant plant response rating (0 to 100 scale) (giant foxtail; [4]): 100
- Plant response rating, Foxtail, Giant (giant foxtail; [2]): 100
- Foxtail, Giant plant response rating (giant foxtail; 125 g ai/ha): 10
- Foxtail, Giant plant response rating (giant foxtail; 500 g ai/ha): 20
